Measured values: PubChem BioAssay (NCI)
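Where inhibition never reached the appropriate level, the endpoint shown equals the highest concentration tested. Otherwise, values were interpolated linearly from a five-concentration, 48-hour dose response in 96-well plates. Here, GI50 denotes the concentration required for 50% inhibition of growth. At the TGI there is no net growth.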

How the values were obtained:
Assay in all cases: NCI anticancer screen, dose series, 48 h
MALME-3M melanoma = system: MALME-3M melanoma
HCT-116 colon = system: HCT-116 colon
K-562 leukemia = system: K-562 leukemia
RXF 393 renal = system: RXF 393 renal
OVCAR-8 ovarian = system: OVCAR-8 ovarian
HCT-15 colon = system: HCT-15 colon
OVCAR-3 ovarian = system: OVCAR-3 ovarian
CAKI-1 renal = system: CAKI-1 renal
SF-268 CNS = system: SF-268 CNS
CCRF-CEM leukemia = system: CCRF-CEM leukemia

| SMILES | TGI (MALME-3M melanoma) | TGI (HCT-116 colon) | TGI (K-562 leukemia) | TGI (RXF 393 renal) | TGI (OVCAR-8 ovarian) | TGI (HCT-15 colon) | TGI (OVCAR-3 ovarian) | TGI (CAKI-1 renal) | TGI (SF-268 CNS) | TGI (CCRF-CEM leukemia) | GI50 (HCT-116 colon) | GI50 (K-562 leukemia) | GI50 (RXF 393 renal) | GI50 (OVCAR-8 ovarian) | GI50 (HCT-15 colon) | GI50 (OVCAR-3 ovarian) | GI50 (CAKI-1 renal) | GI50 (SF-268 CNS) | GI50 (CCRF-CEM leukemia) | GI50 (MALME-3M melanoma) |
| --- | --- | --- | --- | --- | --- | --- | --- | --- | --- | --- | --- | --- | --- | --- | --- | --- | --- | --- | --- | --- |
| CC[N+](CC)(CCNCC(N)=O)CC(N)=O | > 10 µM | > 10 µM | > 10 µM | > 10 µM | > 10 µM | > 10 µM | > 10 µM | > 10 µM | > 10 µM | > 10 µM | – | – | – | – | – | – | – | – | – | – |
| c1ccc(N=C2SC(=NC3CCCCC3)N(C3CCCCC3)C2=Nc2ccccc2)cc1 | > 100 µM | > 100 µM | > 100 µM | > 100 µM | > 100 µM | > 100 µM | > 100 µM | > 100 µM | – | > 100 µM | – | – | – | – | – | – | – | – | – | – |
| Cc1ccc(S(=O)(=O)Oc2cc(-c3ccccc3)nc3ccccc23)cc1 | 17.9 µM | 15.9 µM | 34.8 µM | 11.9 µM | > 77.6 µM | > 40.3 µM | 5.73 µM | – | > 100 µM | > 100 µM | – | – | – | – | – | – | – | – | – | – |
| C=CC(Br)(CBr)CCC(Cl)C(C)C (configuration not stated) | 3.71 µM | 12 µM | 5.4 µM | 3.31 µM | – | – | 4.13 µM | 7.52 µM | 3.07 µM | 2.64 µM | – | – | – | – | – | – | – | – | – | – |
| O=NN(CCCl)C(=O)NC1CCSc2ccccc21 (configuration not stated) | > 100 µM | > 100 µM | > 100 µM | > 100 µM | > 100 µM | > 100 µM | > 100 µM | > 100 µM | > 100 µM | > 100 µM | – | – | – | – | – | – | – | – | – | – |
| NC(Cc1cccc([N+](=O)[O-])c1)C(=O)O (configuration not stated) | > 100 µM | > 100 µM | > 100 µM | > 100 µM | > 100 µM | > 100 µM | > 100 µM | > 100 µM | > 100 µM | > 100 µM | – | – | – | – | – | – | – | – | – | – |
| Cc1nc(N)sc1-c1ccnc(Nc2ccc(N3CCOCC3)cc2)n1 | > 65 µM | > 100 µM | > 100 µM | 2.78 µM | > 100 µM | > 100 µM | > 100 µM | 3.05 µM | 50.7 µM | > 100 µM | 1.52 µM | 1.6 µM | 0.938 µM | 2.78 µM | 0.991 µM | 7.37 µM | 0.517 µM | 1.54 µM | 1.16 µM | – |
| COc1ccc(C2CC(c3cccc(Nc4ccncc4)c3)=NN2c2cc(Cl)cc(Cl)c2)cc1 (configuration not stated) | – | – | 5.57 µM | – | – | 3.26 µM | 3.35 µM | 3.1 µM | 5.62 µM | > 100 µM | – | 2.41 µM | – | – | 1.7 µM | 1.81 µM | 1.62 µM | 2.2 µM | 2.81 µM | – |
| NC(N)=NCCN=C(N)N | > 100 µM | > 100 µM | > 100 µM | > 100 µM | > 100 µM | > 100 µM | > 100 µM | > 100 µM | > 100 µM | > 100 µM | – | – | – | – | – | – | – | – | – | – |
| NNC(N)Nc1ccccc1 (configuration not stated) | > 100 µM | – | > 100 µM | > 100 µM | > 100 µM | > 100 µM | > 100 µM | > 100 µM | > 100 µM | > 100 µM | – | – | – | – | – | – | – | – | – | – |
| NCCCNc1nc2ccccc2c2c(=O)c3cc(OC(F)(F)F)ccc3sc12 | 3.08 µM | – | – | – | 4.77 µM | – | – | 2.93 µM | – | – | – | – | – | 2.01 µM | – | – | 1.58 µM | – | – | 1.57 µM |
| CC(=O)Oc1cccc2c(/C=N/NC(N)=S)ncc(C)c12 | 42.7 µM | 32.6 µM | > 100 µM | 23.7 µM | > 34.9 µM | 24.1 µM | 32.3 µM | 15.6 µM | 17.8 µM | > 100 µM | – | – | – | – | – | – | – | – | – | – |
| CC1CC=CC(O)C1 (configuration not stated) | > 100 µM | > 100 µM | > 100 µM | > 100 µM | > 100 µM | > 100 µM | > 100 µM | – | > 100 µM | > 100 µM | – | – | – | – | – | – | – | – | – | – |
| O=C(OC(=O)n1ccc2ccccc21)n1ccc2ccccc21 | – | > 100 µM | > 100 µM | > 100 µM | > 100 µM | > 100 µM | > 100 µM | > 100 µM | > 100 µM | > 100 µM | – | – | – | – | – | – | – | – | – | – |
| CCCCCN=Cc1c(O)c(O)c(C(C)C)c2cc(C)c(-c3c(C)cc4c(C(C)C)c(O)c(O)c(C=NCCCCC)c4c3O)c(O)c12 | 33.1 µM | > 100 µM | 70 µM | 46.8 µM | > 100 µM | 78 µM | 65 µM | 97.6 µM | 47.3 µM | > 100 µM | – | – | – | – | – | – | – | – | – | – |
| COc1cc(C[S+]2CCCC2)c(SC)cc1C[S+]1CCCC1 | > 100 µM | > 100 µM | > 100 µM | > 100 µM | > 100 µM | > 100 µM | > 100 µM | > 100 µM | > 100 µM | > 100 µM | – | – | – | – | – | – | – | – | – | – |
| Cc1cc(=O)[nH]c(NN2C(Cl)C(=O)C2c2cccc(O)c2)n1 (configuration not stated) | – | > 100 µM | > 100 µM | > 100 µM | > 100 µM | > 100 µM | 27.4 µM | – | > 100 µM | > 100 µM | – | – | – | – | – | – | – | – | – | – |
| CCC[CH2][Ge]([CH2]CCC)([CH2]CCC)[O]C(=O)CC(=O)c1ccccc1 | 13 µM | 12.3 µM | 14.7 µM | 3.65 µM | 18.3 µM | 10.4 µM | 17.6 µM | 20.6 µM | 21.6 µM | 10.6 µM | 0.191 µM | 0.346 µM | 0.728 µM | 1.65 µM | 0.316 µM | 2.63 µM | 6.37 µM | 4.57 µM | 0.266 µM | 1.47 µM |
| NC(CCCCP(=O)(O)O)C(=O)O (configuration not stated) | – | > 100 µM | > 100 µM | > 100 µM | > 100 µM | > 100 µM | > 100 µM | > 100 µM | > 100 µM | > 100 µM | – | – | – | – | – | – | – | – | – | – |
| CCc1nc(N)nc(N)c1-c1ccc2nn(-c3ccccc3)[n+]([O-])c2c1 | 22.7 µM | 15.5 µM | 22.9 µM | 25 µM | 26.8 µM | 18.8 µM | 28.3 µM | 18.2 µM | 31.5 µM | 36.8 µM | – | – | – | – | – | – | – | – | – | – |
| CC(=O)OC1CCC2(C)C3CCC4(C)C(c5ccc(=O)oc5)CC5OC54C3CCC2(O)C1 (configuration not stated) | 3.21 µM | 4.61 µM | 24 µM | 1.61 µM | 7.73 µM | 14.6 µM | 2.29 µM | 2.23 µM | 2.57 µM | 2.7 µM | – | – | – | – | – | – | – | – | – | – |
| Nc1nc(N)c2[nH]c(CNc3ccc(C(=O)O)cc3)nc2n1 | > 100 µM | > 100 µM | > 100 µM | > 100 µM | > 100 µM | > 100 µM | > 100 µM | > 100 µM | > 100 µM | > 100 µM | – | – | – | – | – | – | – | – | – | – |
| O=[N+]([O-])c1ccc(C=C2C(Cl)=C(Cl)C(Cl)=C2Cl)cc1 | 9.26 µM | 3.37 µM | > 100 µM | 3.39 µM | 5.28 µM | > 100 µM | 3.46 µM | 3.4 µM | 4.4 µM | 6.57 µM | 1.79 µM | 3.68 µM | 1.81 µM | 2.16 µM | 3.17 µM | 1.83 µM | 1.11 µM | 2.01 µM | 2.21 µM | 2.59 µM |
